Measurements: paper PMC7910576, “Marine furanocembranoids-inspired macrocycles enabled by Pd-catalyzed unactivated C(sp^3)-H olefination mediated by donor/donor carbenes” (Nature Communications, 2021)

Tests used:
IL-6 = test: LPS-induced IL-6 production in RAW264.7 macrophages (ELISA); type: cell-based, mouse; details: for IC50: Mus musculus, RAW264.7 macrophages, LPS 5 μg/mL, 24 h; for potency of inhibitory activity on IL-6 relative to Dexamethasone: compared with Dexamethasone
Experimental: (§1) RAW264.7 cell, a murine macrophage cell line, was purchased from American Type Culture Collection (ATCC, Manassas, VA, USA). Cells were grown in Dulbecco’s Modified Eagle Media (DMEM) containing 10% fetal bovine serum, 2 mM L-glutamine, 100 U/mL penicillin, and 100 μg/mL streptomycin and were maintained at 37 °C in a humidified incubator of 5% CO2.
(§2) RAW264.7 cells (1 × 10^5/well) were seeded into 96-well plates in triplicate and were treated with DMEM media only or 5 μg/mL of LPS or with indicated concentrations of compounds for 24 h. Supernatants were collected and then quantified with the mouse TNF-α, IL-6, and IL-1β ELISA kits following the manufacturer’s instructions.

TNF-α = test: LPS-induced TNF-α production in RAW264.7 macrophages (ELISA); type: cell-based; details: Mus musculus, LPS 5 μg/mL, 24 h
Experimental: as §1, §2

IL-1β = test: LPS-induced IL-1β production in RAW264.7 macrophages (ELISA); type: cell-based; details: Mus musculus, LPS 5 μg/mL, 24 h
Experimental: as §1, §2

[1] = Cell viability assay (MTT) in RAW264.7 cells; type: cell-based, mouse; details: mouse, RAW264.7 macrophage cells; RAW264.7 cells, 24 h, MTT; read-out: Cytotoxicity CC50
Experimental: as §1
(§3) RAW264.7 cells (1 × 10^5/well) were seeded into 96-well plates in triplicate and were treated with DMEM media or indicated concentrations of compounds for 24 h. MTT solution was added to each well at a final concentration of 0.5 mg/ml and incubated for 4 h before the end of the culture. The quantity of formazan is measured at 570 nm with a microplate reader (Molecular Devices, Sunnyvale, CA, USA) and the cell viability was calculated.

NF-κB signaling pathway = test: Western blotting of LPS-induced NF-κB signaling pathway activation in RAW264.7 cells; type: cell-based, mouse; details: Western blot
Experimental: as §1
RAW264.7 cells (6 × 10^5/well) were seeded into 24-well plates and treated with DMEM media only or 5 μg/mL of LPS or with indicated concentrations of compounds for 24 h. Cells were lysed in sodium dodecyl sulfate (SDS) sample buffer containing protease inhibitor cocktail (Roche Life Science, Mannheim, Germany). The resulted proteins were resolved by SDS-polyacrylamide gel electrophoresis and then subjected to the following antibodies: anti-mouse IKK-α, anti-mouse phospho-IKK-α, anti-mouse IκB-α, anti-mouse NF-κB p65, anti-mouse phospho-NF-κB p65 antibodies (Cell Signaling Technology, Beverly, MA), and HRP-conjugated mouse anti-GAPDH (Kangcheng, Shanghai, China). Signals were detected with an HRP-conjugated anti-rabbit IgG (Bio-Rad, Richmond, CA, USA) using an ECL system (Amersham Biosciences, Buckinghamshire, UK). The uncropped and unprocessed scans of indicated blots were supplied as Supplementary Figure 99 in the Supplementary Information.

RAW264.7 cells = test: Cell viability assay (MTT) in RAW264.7 cells; type: cell-based, mouse; details: at the indicated concentrations, compared to Dexamethasone
Experimental: as §1, §3

Compound	IC50 (IL-6) [µM]	IC50 (TNF-α) [µM]	IC50 (IL-1β) [µM]	CC50 at 24 h [1] [µM]	potency of inhibitory activity on IL-6 relative to Dexamethasone (IL-6)	degradation of IκB-α (NF-κB signaling pathway)	phosphorylation of IKK-α (NF-κB signaling pathway)	phosphorylation of NF-κB (NF-κB signaling pathway)	cytotoxicity (in words) (RAW264.7 cells)
Cc1oc2cc1C(=O)NCCCCCCCCCCCC(=O)N[C@@H](C(C)C)C(=O)Nc1ccc(cc1)C(C)(C)/C=C\2C(C)(C)C [6c]	10.5	11.5	4.38	154	–	–	–	–	–
Cc1oc2cc1C(=O)NCCCCCCCCCCCC(=O)N1CCC[C@H]1C(=O)Nc1ccc(cc1)C(C)(C)/C=C\2C(C)(C)C [6d]	196	107	17.6	27.7	–	–	–	–	–
Cc1oc2cc1C(=O)NCCCCCCCCCCCC(=O)Nc1ccc(cc1)C(C)(C)/C=C\2C(C)(C)C [6g]	1.59	0.45	0.59	> 250	approximately ten times more potent	abrogate	abrogate	suppressed by 6g in a concentration-dependent manner	did not show obvious cytotoxicity
Cc1oc2cc1C(=O)N[C@@H](C(C)C)C(=O)NCCCCCCCCCCCC(=O)Nc1ccc(cc1)C(C)(C)/C=C\2C(C)(C)C [6h]	0.95	56.4	0.0041	56.4	approximately ten times more potent	–	–	–	did not show obvious cytotoxicity

Continued, in another order:

IC50 (IL-6) [µM]	IC50 (TNF-α) [µM]	IC50 (IL-1β) [µM]	Compound	CC50 at 24 h [1] [µM]	potency of inhibitory activity on IL-6 relative to Dexamethasone (IL-6)	degradation of IκB-α (NF-κB signaling pathway)	phosphorylation of IKK-α (NF-κB signaling pathway)	phosphorylation of NF-κB (NF-κB signaling pathway)	cytotoxicity (in words) (RAW264.7 cells)
53.6	> 250	12.8	Cc1oc2cc1C(=O)NCCCCCCCCCCCC(=O)N[C@@H](Cc1ccccc1)C(=O)Nc1ccc(cc1)C(C)(C)/C=C\2C(C)(C)C [6a]	152	–	–	–	–	–
7.28	2.15	3.4	Cc1oc2cc1C(=O)NCCCCCCCCCCCC(=O)N[C@@H](C)C(=O)Nc1ccc(cc1)C(C)(C)/C=C\2C(C)(C)C [6b]	39.7	–	–	–	–	–
80.8	> 250	3.05	Cc1oc2cc1C(=O)NCCCCCCCCCCCC(=O)N[C@@H](C(C)C)C(=O)N[C@@H](Cc1ccccc1)C(=O)Nc1ccc(cc1)C(C)(C)/C=C\2C(C)(C)C [6e]	> 250	–	–	–	–	–
29.5	10	8.61	CSCC[C@@H]1NC(=O)CCCCCCCCCCCNC(=O)c2cc(oc2C)/C(C(C)(C)C)=C\C(C)(C)c2ccc(cc2)NC(=O)[C@H](Cc2ccccc2)NC1=O [6f]	214	–	–	–	–	–
